Article PMC10598797, “Molecular View on the iRGD Peptide Binding Mechanism: Implications for Integrin Activity and Selectivity Profiles” (Journal of Chemical Information and Modeling, 2023)

Key:
αvβ5 = biological target: T1, αvβ5 (Homo sapiens, UniProt P06756+P18084); experiment: Solid-phase integrin binding assay, αvβ5
T1 construct: purchased R&D Systems, Inc
Description: (§3) Purified αvβ3 (Sino Biological Europe GmbH) and αvβ5 (R&D Systems, Inc.) were diluted to 0.5 μg/mL, while αvβ6 (Sino Biological Europe GmbH) was diluted to 1 μg/mL in coating buffer containing Tris–HCl (20 mmol/L; pH 7.4), NaCl (150 mmol/L), MnCl2 (1 mmol/L), CaCl2 (2 mmol/L), and MgCl2 (1 mmol/L). An aliquot of diluted receptors (100 μL per well) was added to 96-well microtiter plates (Nunc MW96F Maxisorp Straight) and incubated overnight at 4 °C. The plates were then incubated with blocking solution (coating buffer plus 1% bovine serum albumin) for an additional 2 h at room temperature to block nonspecific binding, followed by 3 h incubation at room temperature with various concentrations of test compounds in the presence of, respectively, vitronectin (1 μg/mL, Sigma-Aldrich) for αvβ3 and αvβ5 and fibronectin for αvβ6 (1 μg/mL, Sigma-Aldrich) biotinylated using the EZ-Link Sulfo-NHS-Biotinylation kit (Thermo Fisher). […] Absorbance at 415 nm was read with a BMG Labtech Fluostar Optima microplate reader. All of the experiments were performed in triplicates, and the data collected were analyzed using the GraphPad 5.0 Software Package (GraphPad Prism, San Diego, CA).

αvβ6 = biological target: T2, αvβ6 (Homo sapiens, UniProt P06756+P18564); experiment: Solid-phase integrin binding assay, αvβ6; settings: αvβ6 1 μg/mL coated overnight at 4 °C; biotinylated fibronectin 1 μg/mL; 3 h incubation at room temperature; pH 7.4; absorbance 415 nm; mean of three independent experiments ± SEM
T2 construct: purchased Sino Biological Europe GmbH
Description: as §3

[1] = test system: metastatic pancreatic ductal adenocarcinoma (PDAC); settings: phase I trial, combination with nab-paclitaxel and gemcitabine; cited from earlier work
From the text: (§1) Nowadays, the clinical efficacy of chemotherapeutic drugs is frequently hampered either by a lack of selectivity over healthy cells or by poor pharmacokinetic properties, including cancer homing and penetration. This is especially true for solid tumors, which are frequently characterized by the upregulation of junction proteins such as desmoglein 2 (DSG2) and E-cadherin, and extracellular matrix (ECM) components (i.e., fibrinogen and collagen), which form a physical barrier against the intracellular transport of exogenous molecules.[1] For these reasons, anticancer compounds often need to be a ...

tumor = settings: cited from earlier work
From the text: as §1

[2] = cited from earlier work
From the text: (§2) The striking iRGD’s tumor-homing activity is linked to the marked overexpression of RGD integrins on the cancer cell membrane.[38]−[40] […] This can be correlated to the peculiar multistage internalization process of iRGD, where the binding to integrins represents only the first step.[16]

tumor migration = settings: in vitro, CendR- and NRP-1-dependent; cited from earlier work
From the text: as §2

neuropilin-1 (NRP-1) = settings: cited from earlier work
From the text: as §2

T2 sequence (P06756 31-992 limits assumed): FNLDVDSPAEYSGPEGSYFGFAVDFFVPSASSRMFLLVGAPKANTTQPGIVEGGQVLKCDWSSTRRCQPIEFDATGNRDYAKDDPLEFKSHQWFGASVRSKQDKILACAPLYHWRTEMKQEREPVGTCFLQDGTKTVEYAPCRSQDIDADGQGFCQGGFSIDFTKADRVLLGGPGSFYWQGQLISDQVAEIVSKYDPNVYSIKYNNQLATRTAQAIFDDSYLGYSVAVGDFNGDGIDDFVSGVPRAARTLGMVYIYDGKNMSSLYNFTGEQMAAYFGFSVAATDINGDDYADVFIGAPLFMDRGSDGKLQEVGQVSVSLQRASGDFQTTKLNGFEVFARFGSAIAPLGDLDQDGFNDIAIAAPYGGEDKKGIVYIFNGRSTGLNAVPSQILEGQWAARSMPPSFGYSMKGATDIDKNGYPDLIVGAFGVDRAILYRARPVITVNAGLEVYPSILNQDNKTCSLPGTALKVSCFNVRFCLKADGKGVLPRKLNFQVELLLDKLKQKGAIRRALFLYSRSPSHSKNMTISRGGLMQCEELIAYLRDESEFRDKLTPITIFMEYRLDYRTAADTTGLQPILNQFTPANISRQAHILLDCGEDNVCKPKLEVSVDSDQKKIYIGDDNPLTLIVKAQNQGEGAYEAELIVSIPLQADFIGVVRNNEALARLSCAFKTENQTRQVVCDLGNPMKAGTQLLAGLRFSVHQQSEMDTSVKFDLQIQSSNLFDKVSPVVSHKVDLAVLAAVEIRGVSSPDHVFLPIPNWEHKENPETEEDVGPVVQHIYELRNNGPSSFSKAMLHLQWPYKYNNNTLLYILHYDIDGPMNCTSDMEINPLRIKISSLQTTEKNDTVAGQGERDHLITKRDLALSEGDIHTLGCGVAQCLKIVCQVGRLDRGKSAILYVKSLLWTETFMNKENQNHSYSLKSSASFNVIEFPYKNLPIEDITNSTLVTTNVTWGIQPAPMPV
T2 sequence (P18564 22-707 limits assumed): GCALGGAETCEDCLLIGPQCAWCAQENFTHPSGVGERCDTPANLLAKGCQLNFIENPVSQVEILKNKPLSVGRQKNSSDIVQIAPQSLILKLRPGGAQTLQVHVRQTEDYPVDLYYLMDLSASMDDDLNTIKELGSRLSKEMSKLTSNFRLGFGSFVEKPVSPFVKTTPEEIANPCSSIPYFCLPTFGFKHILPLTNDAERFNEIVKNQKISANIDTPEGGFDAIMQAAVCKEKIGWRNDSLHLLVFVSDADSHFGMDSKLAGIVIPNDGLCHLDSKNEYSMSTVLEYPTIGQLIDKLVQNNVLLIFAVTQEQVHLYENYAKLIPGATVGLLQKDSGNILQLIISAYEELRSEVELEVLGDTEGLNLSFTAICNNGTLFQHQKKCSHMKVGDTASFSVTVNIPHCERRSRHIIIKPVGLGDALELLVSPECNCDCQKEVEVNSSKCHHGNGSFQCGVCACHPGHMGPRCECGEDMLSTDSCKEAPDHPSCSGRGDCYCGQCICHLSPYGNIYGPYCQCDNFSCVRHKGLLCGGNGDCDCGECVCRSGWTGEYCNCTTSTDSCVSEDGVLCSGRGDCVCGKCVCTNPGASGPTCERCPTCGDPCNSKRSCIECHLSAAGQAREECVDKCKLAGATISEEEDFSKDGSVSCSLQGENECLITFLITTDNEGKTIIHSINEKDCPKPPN
T1 sequence (P06756 31-992 limits assumed): as the sequence (P06756 31-992 limits assumed) above
T1 sequence (P18084 24-719 limits assumed): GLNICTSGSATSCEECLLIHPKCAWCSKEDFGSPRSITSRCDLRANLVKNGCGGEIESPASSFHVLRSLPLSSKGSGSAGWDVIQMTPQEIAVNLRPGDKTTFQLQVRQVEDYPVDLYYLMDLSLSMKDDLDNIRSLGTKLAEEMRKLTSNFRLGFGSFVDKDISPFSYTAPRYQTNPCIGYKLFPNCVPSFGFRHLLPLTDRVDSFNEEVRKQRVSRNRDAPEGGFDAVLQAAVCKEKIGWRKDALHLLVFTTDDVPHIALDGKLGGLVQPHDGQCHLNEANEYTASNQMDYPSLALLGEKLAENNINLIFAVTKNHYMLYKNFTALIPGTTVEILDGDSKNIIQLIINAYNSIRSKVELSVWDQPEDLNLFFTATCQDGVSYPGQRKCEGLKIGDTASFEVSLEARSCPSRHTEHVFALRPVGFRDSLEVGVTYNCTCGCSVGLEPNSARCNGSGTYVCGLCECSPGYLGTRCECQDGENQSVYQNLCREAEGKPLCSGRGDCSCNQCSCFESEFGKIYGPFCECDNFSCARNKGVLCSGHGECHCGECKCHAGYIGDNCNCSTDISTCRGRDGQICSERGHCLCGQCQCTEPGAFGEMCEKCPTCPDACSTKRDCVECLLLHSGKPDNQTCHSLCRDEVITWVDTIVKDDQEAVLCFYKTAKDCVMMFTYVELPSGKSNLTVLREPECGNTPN

| Compound | potency toward αvβ5 (in words) (αvβ5) | IC50 (αvβ6) | progression-free survival [1] | tumor endocytosis of cytotoxic agents (tumor) | site of proteolytical cleavage [2] | effect on tumor migration and chemorepulsion (tumor migration) | internalization upon binding to NRP-1 (neuropilin-1 (NRP-1)) |
| --- | --- | --- | --- | --- | --- | --- | --- |
| N=C(N)NCCC[C@@H]1NC(=O)[C@@H](N)CSSC[C@@H](C(=O)O)NC(=O)[C@H](CC(=O)O)NC(=O)[C@@H]2CCCN2C(=O)CNC(=O)[C@H](CCCCN)NC(=O)[C@H](CC(=O)O)NC(=O)CNC1=O [1 (iRGD)] | mid-low nanomolar potency | 191 ± 44 nM | longer progression-free survival | enhanced by the simple coadministration | proteolytical cleavage at the Lys^5–Gly^6 bond | can inhibit tumor migration and induce chemorepulsion | – |
| CRGDK [CendR motif] | – | – | – | – | – | – | triggers the internalization of the peptide–receptor complex |
